Test results from patent US20070249590A1, “Substituted indolo[2,3-a]pyrrolo[3,4-c]carbazole compounds useful in treating kinase disorders” (priority 2005, published 2007).

Molecular target: T1, JAK3 (JH1 and JH2 domain) (Homo sapiens, UniProt P52333)
T1 sequence (P52333 521-1111 limits assumed): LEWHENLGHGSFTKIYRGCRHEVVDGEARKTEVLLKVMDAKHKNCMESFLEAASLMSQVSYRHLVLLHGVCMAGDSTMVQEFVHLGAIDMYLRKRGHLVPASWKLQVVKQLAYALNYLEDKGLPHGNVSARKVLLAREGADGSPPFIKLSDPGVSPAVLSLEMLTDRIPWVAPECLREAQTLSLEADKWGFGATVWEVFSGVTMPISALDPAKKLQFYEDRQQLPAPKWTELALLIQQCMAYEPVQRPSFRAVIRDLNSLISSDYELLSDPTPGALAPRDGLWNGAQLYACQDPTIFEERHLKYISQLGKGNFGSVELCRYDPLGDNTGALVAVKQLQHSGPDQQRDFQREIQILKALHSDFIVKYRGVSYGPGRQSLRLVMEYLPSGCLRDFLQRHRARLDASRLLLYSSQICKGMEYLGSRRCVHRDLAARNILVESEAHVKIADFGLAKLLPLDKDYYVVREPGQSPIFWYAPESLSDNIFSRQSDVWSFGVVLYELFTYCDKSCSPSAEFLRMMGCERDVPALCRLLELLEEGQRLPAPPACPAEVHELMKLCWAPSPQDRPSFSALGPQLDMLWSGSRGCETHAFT
Test: JAK3 Kinase Assay (ELISA of peptide substrate phosphorylation)
Assay type: biochemical
Conditions: purified JAK3 enzyme, 10 μM ATP, biotinylated peptide substrate, 1 hour at room temperature
In short: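 Sf21-baculovirus-expressed JAK3 (JH1+JH2), glutathione-bead purified, with biotinylated peptide substrate (in buffer containing 10 μM ATP) in HEPES pH 7.5/MgCl2/DTT, 1 h RT. Product was captured on Neutravidin, detected with HRP anti-phosphotyrosine (PY99)/TMB, OD 450/650 nm. Triplicate 16-point half-log series from 200 μM gave IC50; otherwise % inhibition at 1 μM.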

Row | Structure (SMILES) | IC50
1 | O=C1NCc2c1c1c3cc(CN4CCOCC4)ccc3n3c1c1c2c2cc(CN4CCOCC4)ccc2n1CC(CO)C3 (centres unmarked) [Cpd 214, 3,9-bis-(morpholin-4-ylmethyl)-12,13-(2-hydroxymethyl-propan-1,3-yl)-6,7,12,13-tetrahydro-5-oxo-5H-indolo[2,3-a]pyrrolo[3,4-c]carbazole] | > 50000 nM
2 | O=C(NC1CCNCC1)OCC1(O)Cn2c3ccccc3c3c4c(c5c6ccccc6n(c5c32)C1)C(=O)NC4 (centres unmarked) [Cpd 178, 12,13-[2-hydroxy-2-(piperidin-4-yl-carbamoyloxymethyl)-propan-1,3-yl]-6,7,12,13-tetrahydro-5-oxo-5H-indolo[2,3-a]pyrrolo[3,4-c]carbazole] | 154 nM
3 | O=C(NCCc1ccccn1)OCC1Cn2c3ccccc3c3c4c(c5c6ccccc6n(c5c32)C1)C(=O)NC4 (centres unmarked) [Cpd 160, 12,13-{2-[(2-pyridin-2-yl-ethyl)carbamoyloxymethyl]-propan-1,3-yl}-6,7,12,13-tetrahydro-5-oxo-5H-indolo[2,3-a]pyrrolo[3,4-c]carbazole] | > 200 nM
4 | CN1CCC(N(C)Cc2ccc3c(c2)c2c4c(c5c6ccccc6n6c5c2n3CC(O)C(O)C6)CNC4=O)CC1 (centres unmarked) [Cpd 196, 3-{[N-methyl-N-(1-methyl-piperidin-4-yl)]aminomethyl}-12,13-(2,3-dihydroxy-butan-1,4-yl)-6,7,12,13-tetrahydro-5-oxo-5H-indolo[2,3-a]pyrrolo[3,4-c]carbazole] | ~1000 nM
5 | O=C1NCc2c1c1c3cc(CN4CCOCC4)ccc3n3c1c1c2c2ccccc2n1CC(O)C(O)C3 (centres unmarked) [Cpd 194, 3-(morpholin-4-ylmethyl)-12,13-(2,3-dihydroxy-butan-1,4-yl)-6,7,12,13-tetrahydro-5-oxo-5H-indolo[2,3-a]pyrrolo[3,4-c]carbazole] | 503 nM
6 | COc1ccc(CCNC(=O)OC2Cn3c4ccccc4c4c5c(c6c7ccccc7n(c6c43)CC2O)C(=O)NC5=O)cc1OC (centres unmarked) [Cpd 84, 12,13-(2-{[2-(3,4-dimethoxy-phenyl)ethyl]carbamoyloxy}-3-hydroxy-butan-1,4-yl)-12,13-dihydro-5,7-dioxo-6H-indolo[2,3-a]pyrrolo[3,4-c]carbazole] | 187 nM

The next molecules have a lower IC50 than those just listed; values first:

Row | IC50 | Structure (SMILES)
7 | 125 nM | CN(C)CCNC(=O)OC1CCCn2c3ccccc3c3c4c(c5c6ccccc6n(c5c32)C1)C(=O)NC4=O (centres unmarked) [Cpd 114, 12,13-{2-[(2-dimethylamino-ethyl)carbamoyloxy]-pentan-1,5-yl}-12,13-dihydro-5,7-dioxo-6H-indolo[2,3-a]pyrrolo[3,4-c]carbazole]
8 | 113 nM | O=C(NCCCN1CCOCC1)OC1Cn2c3ccccc3c3c4c(c5c6ccccc6n(c5c32)CC1O)C(=O)NC4=O (centres unmarked) [Cpd 88, 12,13-{2-[(3-morpholin-4-yl-prop-1-yl)carbamoyloxy]-3-hydroxy-butan-1,4-yl}-12,13-dihydro-5,7-dioxo-6H-indolo[2,3-a]pyrrolo[3,4-c]carbazole]
9 | 108 nM | O=C1NC(=O)c2c1c1c3ccccc3n3c1c1c2c2ccccc2n1CC(OC(=O)N1CCOCC1)C(O)C3 (centres unmarked) [Cpd 98, 12,13-[2-(morpholin-4-yl-carbonyloxy)-3-hydroxy-butan-1,4-yl]-12,13-dihydro-5,7-dioxo-6H-indolo[2,3-a]pyrrolo[3,4-c]carbazole]
10 | 94 nM | O=C1NC(=O)c2c1c1c3ccccc3n3c1c1c2c2ccccc2n1CC(O)(C(=O)NCCc1cccs1)C(O)C3 (centres unmarked) [Cpd 128, 12,13-{2-[(2-thien-2-yl-ethyl)carbamoyl]-2,3-dihydroxy-butan-1,4-yl}-12,13-dihydro-5,7-dioxo-6H-indolo[2,3-a]pyrrolo[3,4-c]carbazole]
11 | 44 nM | O=C(NCCCn1ccnc1)OC1Cn2c3ccccc3c3c4c(c5c6ccccc6n(c5c32)CC1O)C(=O)NC4=O (centres unmarked) [Cpd 91, 12,13-{2-[(3-imidazol-1-yl-prop-1-yl)carbamoyloxy]-3-hydroxy-butan-1,4-yl}-12,13-dihydro-5,7-dioxo-6H-indolo[2,3-a]pyrrolo[3,4-c]carbazole]
